Test results reported in ChEMBL document CHEMBL5120939, “Novel Isoindolinone-Based Analogs of the Natural Cyclic Peptide Fenestin A: Synthesis and Antitumor Activity” (ACS Med Chem Lett, 2022).
The source made the active and inactive calls. No cut-off for these calls is given here. Numbered stars: 1 amine (or outer) side, 2 acyl side, 3 side chain; on linkers, the order of the positions; unused ones are H or OH. Square brackets hold non-standard residues; d marks the D form. Peptide text beside a SMILES is read from it. X1 = O=C1c2ccccc2[C@@](O)(CN(Cc2ccccc2)[*:1])N1CC(=O)[*:2]; X2 = O=C1c2ccccc2[C@](O)(CN(Cc2ccccc2)[*:1])N1CC(=O)[*:2]; Thz = O=C(O)[C@@H]1CSCN1

Tests used:
HeLa [1] = assay: Upregulation of cytochrome C expression in human HeLa cell cytosol at 6.2 to 24.6 uM incubated for 48 hrs by Western blotting analysis; assay type: functional, subcellular; details: dose 6.2-24.6 µM
HeLa [2] = assay: Effect on cell morphology in human HeLa cells assessed as appearance of round cells at 26.1 uM incubated for 12 to 24 hrs by scanning electron microscopic analysis; assay type: functional, cell-based; details: time 12-24 hrs
HeLa [3] = assay: Downregulation of MDM2 protein expression in human HeLa cells at 6.2 to 24.6 uM incubated for 48 hrs by Western blotting analysis; assay type: functional, cell-based; details: dose 6.2-24.6 µM
HeLa [4] = assay: Effect on cell morphology in human HeLa cells assessed as disappearance of finger like protrusions at 26.1 uM incubated for 12 to 24 hrs by scanning electron microscopic analysis; assay type: functional, cell-based; details: time 12-24 hrs
HeLa [5] = assay: Upregulation of p53 protein expression in human HeLa cells at 6.2 to 24.6 uM incubated for 48 hrs by Western blotting analysis; assay type: functional, cell-based; details: dose 6.2-24.6 µM
HeLa [6] = assay: Induction of cell cycle arrest in human HeLa cells assessed as accumulation at G2/M phase at 12.3 uM by RNAse A/PI staining based flow cytometric analysis; assay type: functional; details: time 12-48 hrs, TDE = time-dependent effect
HeLa [7] = assay: Effect on cell morphology in human HeLa cells assessed as decrease in cell contact at 26.1 uM incubated for 48 hrs by fluorescent inverted microscopic analysis; assay type: functional, cell-based
HeLa [8] = assay: Antitumor activity against human HeLa cells assessed as inhibition of lactate dehydrogenase activity at 37.5 to 200 uM incubated for 48 hrs by Lactate dehydrogenase activity assay; assay type: functional, cell-based; details: dose 37.5-200 µM
HeLa [9] = assay: Effect on cell morphology in human HeLa cells assessed as cell shrinkage at 26.1 uM incubated for 48 hrs by fluorescent inverted microscopic analysis; assay type: functional, cell-based
HeLa [10] = assay: Induction of mitochondrial membrane potential loss in human HeLa cells assessed as decrease in fluorescence intensity […] at 12.3 uM by Rhodamine 123 staining based flow cytometric analysis; assay type: functional, cell-based; details: time 12-48 hrs, TDE = time-dependent effect
HepG2 [11] = assay: Effect on cell morphology in human HepG2 cells assessed as cell shrinkage at 26.1 uM incubated for 48 hrs by fluorescent inverted microscopic analysis; assay type: functional, cell-based
HeLa [12] = assay: Effect on cell morphology in human HeLa cells assessed as complete disruption at 26.1 uM incubated for 48 hrs by scanning electron microscopic analysis; assay type: functional, cell-based
HepG2 [13] = assay: Effect on cell morphology in human HepG2 cells assessed as decrease in cell contact at 26.1 uM incubated for 48 hrs by fluorescent inverted microscopic analysis; assay type: functional, cell-based
HeLa [14] = assay: Effect on intracellular calcium ion concentration in human HeLa assessed as increase in fluorescence intensity at 12.3 uM by Fluo-3 AM staining based flow cytometric analysis; assay type: functional, cell-based
HeLa [15] = assay: Induction of mitochondrial membrane potential loss in human HeLa cells assessed as decrease in fluorescence intensity at 6.2 to 24.6 uM incubated for 12 to 48 hrs by Rhodamine 123 staining based flow cytometric analysis; assay type: functional, cell-based; details: dose 6.2-24.6 µM, time 12-48 hrs
HepG2 [16] = assay: Antitumor activity against human HepG2 cells assessed as inhibition of cell growth incubated for 48 hrs by MTT assay; assay type: functional, cell-based; details: HepG2, 48 h
HeLa [17] = assay: Antitumor activity against human HeLa cells assessed as inhibition of cell growth by MTT assay; assay type: functional, cell-based
[18] = Cytotoxicity against mouse L929 cells assessed as cell growth inhibition incubated for 48 hrs by MTT assay; assay type: toxicity, cell-based
HeLa [19] = assay: cells; details: Homo sapiens, 48 h
Description: Antitumor activity against human HeLa cells assessed as inhibition of cell growth incubated for 48 hrs by MTT assay

Structure (SMILES) | IC50 (HepG2 [16]) [µM] | IC50 (HeLa [19]) [µM] | IC50 at 48 h [18] [µM] | other results
CC[C@H](C)[C@@H]1NC(=O)[C@H](CC(C)C)NC(=O)[C@@H]2CSCN2C(=O)[C@H]2CSCN2C(=O)CN2C(=O)c3ccccc3[C@@]2(O)CN(Cc2ccccc2)C1=O |  |  |  | Activity (HeLa [1]): Active; Activity (HeLa [2]): Active; Activity (HeLa [3]): Active; Activity (HeLa [4]): Active; Activity (HeLa [5]): Active; Activity (HeLa [6]): Tde; Activity (HeLa [7]): Active; inhibition (HeLa [8]): Active; Activity (HeLa [9]): Active; Activity (HeLa [10]): Tde; Activity (HepG2 [11]): Active; Activity (HeLa [12]): Active; Activity (HepG2 [13]): Active; Activity (HeLa [14]): Active; Activity (HeLa [15]): Active
CC[C@H](C)[C@@H]1NC(=O)[C@H](CC(C)C)NC(=O)[C@@H]2CSCN2C(=O)CN2C(=O)c3ccccc3[C@]2(O)CN(Cc2ccccc2)C(=O)[C@@H]2CSCN2C1=O | 27.3 | 69.3 | 293 | 
CC[C@H](C)[C@@H]1NC(=O)[C@H](CC(C)C)NC(=O)[C@@H]2CSCN2C(=O)[C@@H]2CSCN2C(=O)CN2C(=O)c3ccccc3[C@@]2(O)CN(Cc2ccccc2)C1=O | 24.7 | 12.3 | 70.9 | 
CC[C@H](C)[C@@H]1NC(=O)CN2C(=O)c3ccccc3[C@]2(O)CN(Cc2ccccc2)C(=O)[C@H](CC(C)C)NC(=O)[C@@H]2CCCN2C(=O)[C@@H]2CCCN2C1=O (cyclo(IPPL[X2])) | 37.7 | 32.7 | > 400 | 
CC[C@H](C)[C@@H]1NC(=O)[C@H](CC(C)C)NC(=O)CN2C(=O)c3ccccc3[C@@]2(O)CN(Cc2ccccc2)C(=O)[C@@H]2CCCN2C(=O)[C@@H]2CCCN2C1=O (cyclo(IPP[X1]L)) | 93.3 | 105 | 284 | 
CC[C@H](C)[C@@H]1NC(=O)[C@H](CC(C)C)NC(=O)[C@@H]2CCCN2C(=O)CN2C(=O)c3ccccc3[C@]2(O)CN(Cc2ccccc2)C(=O)[C@@H]2CCCN2C1=O (cyclo(IP[X2]PL)) | 33.5 | 28.2 | > 400 | IC50 (HeLa [17]): 28.2 µM

Further lines, with some results ahead:

IC50 (HepG2 [16]) [µM] | IC50 (HeLa [19]) [µM] | Structure (SMILES) | IC50 at 48 h [18] [µM] | other results
40.3 | 36.5 | CC[C@H](C)[C@@H]1NC(=O)[C@H](CC(C)C)NC(=O)[C@@H]2CCCN2C(=O)[C@@H]2CCCN2C(=O)CN2C(=O)c3ccccc3[C@]2(O)CN(Cc2ccccc2)C1=O (cyclo(I[X2]PPL)) | > 400 | IC50 (HeLa [17]): 36.5 µM
26.9 | 23.7 | CC[C@H](C)[C@@H]1NC(=O)CN2C(=O)c3ccccc3[C@]2(O)CN(Cc2ccccc2)C(=O)[C@H](CC(C)C)NC(=O)[C@@H]2CSCN2C(=O)[C@@H]2CSCN2C1=O (cyclo(I[Thz][Thz]L[X2])) | > 400 | 
73.5 |  | COc1cccc2c1C(=O)c1c(O)c3c(c(O)c1C2=O)C[C@@](O)(C(=O)CO)C[C@@H]3O[C@H]1C[C@H](N)[C@H](O)[C@H](C)O1 [DOXORUBICIN] | 326 | 
49 | 82.2 | CC[C@H](C)[C@@H]1NC(=O)[C@H](CC(C)C)NC(=O)CN2C(=O)c3ccccc3[C@@]2(O)CN(Cc2ccccc2)C(=O)[C@@H]2CSCN2C(=O)[C@@H]2CSCN2C1=O | 274 | 
